{
  "source": "patent US12698304B2",
  "about": "“Triterpene saponin variants, methods of synthesis and use thereof” (Memorial Sloan-Kettering Cancer Center, priority 2015, dated 2026)",
  "tested_on": "mice immunized with a four-antigen cocktail (MUC1-KLH, GD3-KLH, OVA)",
  "experiment": "preclinical mouse vaccination model; antibody titers by ELISA",
  "type": "in vivo",
  "settings": "5 μg and 20 μg dose of saponin variant (both doses); data not shown",
  "procedure": "Panels a-c: anti-KLH (IgG) (Panel a), anti-OVA (IgG) (Panel b), and anti-MUC1 (IgG) (Panel c) antibody titers at 5 μg dose of each saponin variant. […] Median titer values represented as horizontal bars. Statistical significance compared to the no-adjuvant negative control assessed using unpaired Student's t-test with CI=95%: *p≤0.05, **p<0.01, ***p<0.001.\nThere is currently no in vitro method to measure adjuvant activity, due in part to the unknown and likely multivariate mechanisms of saponin adjuvant action. Thus, we proceeded directly to testing these QS variants in vivo in a mouse vaccination model. Cohorts of mice were immunized with the saponin variant of interest (5 or 20 μg) and a four-antigen cocktail comprising: (1) the immunogenic peptide MUC1 (prostate and breast cancer antigen, non-glycosylated tandem repeat) conjugated to a highly immunogenic carrier protein KLH (keyhole limpet hemocyanin; MUC1-KLH), (2) the poorly immunogenic ganglioside GD3 (melanoma, neuroblastoma, sarcoma antigen) conjugated to KLH (GD3-KLH), and (3) the immunogenic protein antigen ovalbumin (OVA). The antibody titers elicited against all […] antigens were evaluated by ELISA to compare the adjuvant activity of each QS analogue.",
  "data": [
    {"smiles": "C[C@H]1O[C@@H](OC2C(O)[C@@H](NC(=O)CCCCCCCCCCC(=O)O)C(CO)O[C@@H]2OC(=O)N[C@]23CCC(C)(C)CC2C2=CCC4C5(C)CC[C@H](O[C@@H]6OC(C(=O)O)[C@@H](O)[C@H](O[C@@H]7OC[C@@H](O)[C@H](O)C7O)C6O[C@@H]6OC(CO)[C@H](O)[C@H](O)C6O)[C@](C)(C=O)[C@@H]5CC[C@]4(C)[C@]2(C)CC3O)C(O)C(O)[C@H]1O[C@@H]1OC[C@@H](O)C(O)C1O", "note": "(stereo partly drawn) [α-4]", "values": [
      {"measurement": "adjuvant activity (anti-KLH, anti-OVA, anti-MUC1 IgG antibody titers)", "result": "inactive"}
    ]}
  ]
}
